Reference: US12642860B2, “Filamentous nanostructures and their use for treatment of pulmonary disease” (THE JOHNS HOPKINS UNIVERSITY, priority 2019, dated 2026)
Non-standard residues stand in square brackets, D forms with d. Residues, ends and D or L forms follow the SMILES beside them. ξ: configuration not given here. *: point of attachment. X2 = CCCC1O[C@@H]2C[C@H]3[C@@H]4CCC5=CC(=O)C=C[C@]5(C)[C@H]4[C@@H](O)CC3(C)C2(C(=O)COC(=O)OCCS*)O1; Lauroyl = CCCCCCCCCCCC(=O)*; X1 = COCCOCCOCCOCCOCCC(=O)*; ξE = NC(CCC(=O)O)C(=O)O; ξQ = NC(=O)CCC(N)C(=O)O; ξD = NC(CC(=O)O)C(=O)O; ξL = CC(C)CC(N)C(=O)O; ξK = NCCCCC(N)C(=O)O; ξV = CC(C)C(N)C(=O)O; ξP = O=C(O)C1CCCN1

How the values were obtained:
Assay type in all cases: physicochemical
[1] = TEM morphology of filaments after jet nebulization; settings: 500 μM, jet nebulization 10 min, mist and reservoir
Text: (§1) Since the supramolecular filament compositions are several microns long and are formed through non-covalent interactions, their structural integrity may be influenced by a number of factors during nebulization, such as agitation and aerosol formation. Thus, we first assessed the structural stability of these systems while traveling in aerosol droplets generated by a jet nebulizer. Nebulizers are commonly employed medical devices for producing liquid aerosol droplets containing therapeutics via high velocity airflow through the device nozzle. Droplets very large in diameter impact baffles and/or the walls of the nebulizer and are recycled back into the device's reservoir, but droplets small enough to circumvent these barriers (typically ranging in diameter from 1 to 10 μm) exit the device as a respirable aerosol. Therefore, we characterized two groups of structures after nebulization: the exiting mist and the leftover solution in the reservoir. Filament compositions in solutions diluted down to 500 µM of the different PAs were loaded into a jet nebulizer and nebulized for 10 minutes, and the mist and leftover reservoir solutions were collected and subsequently analyzed with TEM. […] For both the nebulized and reservoir populations, we see the introduction of short bundled fibrils, worm-like micelles, and spherical micelles (spherical micelles depicted in FIG. 7).
After encapsulation, we used TEM imaging to confirm self-assembly of the system into filamentous nanostructures. […] Spherical micelles are still observed, but the fibril and worm-like structures are not. […] In terms of delivering therapeutics in an aerosol, this presents an effective strategy for improving structural stability of supramolecular peptide-based assemblies during nebulization.

[2] = Dynamic light scattering molar scattering rate during nebulization; settings: measured every 2 min for 10 min nebulization
Protocol: We next investigated whether this filament breakdown was consistent over the course of a nebulization event. We measured the molar scattering rate of the filaments with dynamic light scattering (DLS) every 2 min for a total 10 min as a measure of assembly size, as larger filamentous assemblies will scatter light more strongly than smaller ones. The molar scattering rate represents the scattering rate normalized to the sample concentration and is used here, since the DLS software uses models for fitting spherical particles and our structures are anisotropic. […] In terms of delivering supramolecular filament systems with a jet nebulizer for treatment administration, the consistent filament breakdown over the course of a nebulization event is promising in regard to aerosol delivery, as the filaments are released reliably with a relatively uniform size drop over time from the device.

[3] = Contour length analysis of filaments in TEM images after jet nebulization; settings: jet nebulization 10 min, mean±SD; for average contour length, exiting the nebulizer as a mist: nebulized mist population; for average contour length, leftover in the reservoir: reservoir population
Text: FIGS. 12A-12F are contour length reduction analyses of (12A) EPA, (12B) OPA, and (12C) KPA filaments after nebulization, comparing the nebulized (red) and reservoir (blue) populations' size distributions (20 bins, 50 nm each). Nebulized populations measured shorter on average compared to the reservoir populations. Average contour lengths (μ) given as mean±SD alongside medians (M) for each population (****p<0.0001, two-tail unpaired t test; EPA: nN=316, nR=316; OPA: nN=311, nR=339; KPA: nN=377, nR=369). Dynamic light scattering measurements of (12D) EPA, (12E) OPA, and (12F) KPA over the course of a 10 min nebulization event as collected every 2 min, showing consistent filament breakdown over time. Data are normalized to molar scattering rate of filaments at t=0 min and given as mean±SD (p>0.05, two-way ANOVA, n=3).
as §1
Filaments before nebulization were not measured, as accurate contour lengths could not be determined, since the filaments are over several microns long. For all three systems, the nebulized population was measured to be on average shorter than its respective reservoir population. […] The EPA, OPA, and KPA filaments averaged around 287±147 nm, 174±103 nm, and 133±108 nm, respectively, exiting the nebulizer as a mist and around 360±177 nm, 206±88 nm, and 196±113 nm, respectively, leftover in the reservoir. For the KPA system, spherical micelles were omitted from this analysis as they bias the distribution representation toward non-filamentous structures.

[4] = Circular dichroism of filaments before and after nebulization; settings: for CD signal immediately after nebulization, mist / CD signal immediately after nebulization, reservoir: 500 μM, 10 min nebulization; for CD signal immediately after nebulization, mist: filaments collected in the mist; for CD signal immediately after nebulization, reservoir: filaments leftover in the reservoir; for CD signal 2 weeks after nebulization: same solutions aged additional 2 weeks at room temperature
Protocol: FIGS. 13A-13C show circular dichroism (CD) spectra of the supramolecular filament systems before and immediately after nebulization (solid lines) alongside the same solutions 2 weeks later (dashed lines). All filaments were nebulized at 500 µM for 10 min. Data given are mean spectra for each solution (n=3). (13A) EPA filaments before and after nebulization, showing preservation of β-sheet character during nebulization. (13B) OPA filaments before and after nebulization, showing retention of β-sheet character with a temporary increase in CD signal. (13C) KPA filaments before and after nebulization, showing a transition from β-sheet to random coil for the nebulization group and weakened β-sheet hydrogen bonding for the reservoir group.
While we were able to directly observe filament breakdown in terms of length, we investigated further the impact nebulization may have on the molecular packing of the PA monomers within the supramolecular filaments. FIG. 13 contains the representative circular dichroism (CD) spectra of the three filament systems before and after a 10 min nebulization event of both filaments that exit as mist and those leftover in the reservoir. EPA, OPA, and KPA filaments before nebulization show primarily β-sheet characteristic hydrogen bonding, as evidenced by a negative peak around 220 nm and a positive peak around 197 nm for each system. […] This slightly contrasts from the behavior observed for the EPA filaments and is likely attributed to the potential alignment of OEG chains of OPA from aerosol formation forces, which reduces steric repulsion between OPA monomers. […] This is corroborated by the morphologies observed for the KPA filaments after nebulization, as smaller worm-like micelles and spherical micelles were generated. The strength of the hydrogen-bonding network within the supramolecular filaments is evidently important in the maintenance and stabilization of β-sheet character after nebulization.
To gain insight into the thermodynamic stability of the new assembly states induced by nebulization, we analyzed the CD signal of the same filament solutions after nebulization after aging for an additional 2 weeks in solution at room temperature. […] Additionally, the shorter EPA and OPA filaments are still observed in the nebulized and reservoir groups with TEM imaging after 2 weeks (FIGS. 14 and 15). […] Since a transition back to β-sheet character is not observed for the nebulized group, it is likely that nebulization induces the formation of new metastable assemblies of the KPA monomers, which is corroborated by TEM images of the KPA filaments 2 weeks after nebulization, as the fibril, worm-like micelle, and spherical micelle structures are still observed (FIG. 16).

[5] = Critical assembly concentration (CAC) by Nile Red assay; settings: in water
Text: FIGS. 17A-17C depict the critical assembly concentration (CAC) of (17A) EPA, (17B) OPA, and (17C) KPA molecules in water as measured from a Nile Red assay. A fluorescence intensity maximum is shifted from a wavelength of 660 nm to 635 nm as Nile Red dye becomes encapsulated within the supramolecular structures of the peptide amphiphiles (PAs). Blue line represents region of concentrations where Nile Red remains in solution; red line represents region where Nile Red is encapsulated. Data are given as mean±SD (n=3).
Therefore, we assessed the thermodynamic stability of each supramolecular filament system by measuring their critical assembly concentration (CAC) using a Nile Red assay. As shown in FIGS. 17A-C, the CAC values of EPA, OPA, and KPA were measured to be 1 μM, 1.9 μM, and 40 μM, respectively. Data from the Nile Red assay are given in full in FIG. 18. The differences in CAC between the different PAs are likely reflective of differences in electrostatic repulsion between the charged groups of EPA and KPA and steric effects with respect to the size of the OEG groups of the OPA molecule.^74 We find a direct correlation between the CAC value and nebulization stability of the supramolecular filaments with respect to nanostructure integrity and hydrogen bonding interactions. […] As the CAC value represents the propensity of the monomer units to aggregate in solution, increasing the strength of hydrophobic interactions alongside other non-covalent interactions through molecular engineering can result in lower CAC systems, and thus create supramolecular filament systems with enhanced stability during aerosol formation.

SMILES | structure/morphology after nebulization (TEM) [1] | filament breakdown over time (molar scattering rate, DLS) [2] | average contour length, exiting the nebulizer as a mist [3] | average contour length, leftover in the reservoir [3] | CD signal immediately after nebulization, mist [4] | CD signal immediately after nebulization, reservoir [4] | CD signal 2 weeks after nebulization [4] | critical assembly concentration (CAC) [5] [µM]
CCCC1O[C@@H]2C[C@H]3[C@@H]4CCC5=CC(=O)C=C[C@]5(C)[C@H]4[C@@H](O)CC3(C)C2(C(=O)COC(=O)OCCSSC[C@H](NC(C)=O)C(=O)NC(C(=O)N[C@H](C(=O)NC(C(=O)NCC(=O)NCC(=O)NC(CCCCN)C(=O)NC(C(=O)NC(CC(C)C)C(=O)NC(CC(=O)O)C(=O)NCC(=O)NC(CCC(N)=O)C(=O)NC(CC(=O)O)C(=O)N2CCCC2C(N)=O)C(C)C)C(C)C)C(C)C)C(C)C)O1 (stereo partly shown) [CAB-0] (Ac-C(X2)[ξV]V[ξV]GG[ξK][ξV][ξL][ξD]G[ξQ][ξD][ξP]-NH2) | retention of filaments after a nebulization event with shortened length |  |  |  |  |  |  | 
CCCCCCCCCCCC(=O)N[C@@H](Cc1ccc(O)cc1)C(=O)NC(C(=O)N[C@H](C(=O)NC(C(=O)NCC(=O)NCC(=O)N[C@@H](CCC(=O)O)C(=O)NC(CCC(=O)O)C(=O)N[C@@H](CCC(=O)O)C(N)=O)C(C)C)C(C)C)C(C)C (stereo partly shown) [EPA] (Lauroyl-Y[ξV]V[ξV]GGE[ξE]E-NH2) | maintained their filamentous structure but a notable reduction in length was observed | consistent breakdown over the course of 10 min | around 287±147 nm | around 360±177 nm | slightly increased β-sheet signal | no change to their hydrogen bonding | maintained their β-sheet character | 1
CCCCCCCCCCCC(=O)N[C@@H](Cc1ccc(O)cc1)C(=O)NC(C(=O)N[C@H](C(=O)NC(C(=O)NCC(=O)NCC(=O)N[C@@H](CCCCN)C(=O)NC(CCCCN)C(=O)N[C@@H](CCCCN)C(N)=O)C(C)C)C(C)C)C(C)C (stereo partly shown) [KPA] (Lauroyl-Y[ξV]V[ξV]GGK[ξK]K-NH2) | formation of different morphologies in both populations | consistent breakdown over the course of 10 min | ~133±108 nm | ~196±113 nm | secondary structure transition from β-sheet to random coil character | weakened β-sheet signal | continued to display the weakened β-sheet signal in the reservoir group and the random coil character of the nebulized group | 40
CCCCCCCCCCCC(=O)N[C@@H](Cc1ccc(O)cc1)C(=O)NC(C(=O)N[C@H](C(=O)NC(C(=O)NCC(=O)NCC(=O)N[C@@H](CCCCNC(=O)CCOCCOCCOCCOCCOC)C(=O)NC(CCCCNC(=O)CCOCCOCCOCCOCCOC)C(N)=O)C(C)C)C(C)C)C(C)C (stereo partly shown) [OPA] (Lauroyl-Y[ξV]V[ξV]GGK(X1)[ξK](X1)-NH2) | shorter filaments are produced | consistent breakdown over the course of 10 min | ~174±103 nm | ~206±88 nm | increased β-sheet signals | increased β-sheet signals | maintained their β-sheet character | 1.9
